# Measurements taken from US20240318141A1, “MATURATION AGENT” (Orizuru Therapeutics, Inc., priority 2021, published 2024).
# Where “and” joins values, the source holds several entries; their conditions need not be identical. Equal values may be shown once.
# Test system: non-endocrine cells in insulin-producing cell population (QHJI-I14s04 iPS cell line)
# Assay: Cisplatin or docetaxel treatment in step 6), then extended culture in basal medium containing EGF (Example 2)
# Assay type: cell-based, human
# Excerpt: The differentiation of a QHJI-I14s04 iPS cell line into an insulin-producing cell population was induced by the three-dimensional culture method using a bioreactor according to steps 1) to 6) described above and the previous report (Nature Biotechnology 2014; 32: 1121-1133). Specifically, the iPS cells were subjected to the first culture in a medium (DMEM/1% B-27 (INS+)/Penicillin Streptomycin/dimethyl sulfoxide) containing differentiation-inducing factors (GSK3β inhibitor, ROCK inhibitor and low dose of activin A) under conditions causing action of insulin, and subsequently subjected to the second culture in a medium (DMEM/1% B-27 (INS−)/Penicillin Streptomycin/dimethyl sulfoxide) containing a differentiation-inducing factor (low dose of activin A) under conditions causing no action of insulin to obtain a definitive endoderm cell population. Further, a pancreatic endocrine progenitor cell population obtained by the induction of differentiation from the definitive endoderm cell population was cultured in a medium (Improved MEM/1% B-27 (INS+)/Penicillin Streptomycin) containing differentiation-inducing factors (ALK5 inhibitor II, T3, LDN, Y-secretase inhibitor RO, and ascorbic acid) and FGF receptor 1 inhibitor (PD-166866) to obtain an insulin-producing cell population.
# An insulin-producing cell population obtained without the addition of cisplatin and docetaxel was used as a control cell population and subjected to extended culture in the same manner as above.
# Marker protein expression (PDX1, CHGA, and Ki67) in each insulin-producing cell population before the start of and after the completion of extended culture was measured by flow cytometry. Samples after the completion of extended culture were collected by sampling three times from the same culture container. The number of cells was measured in an automatic cell counter at the time of sample preparation for flow cytometry, and the total number of cells per mL of the bioreactor was calculated. The number of CHGA-positive cells, the number of PDX1-positive and CHGA-negative cells, and the number of PDX1-negative and CHGA-negative cells were calculated from the obtained total number of cells and the flow cytometry results.
# [1] = after extended culture 4 weeks, EGF present, average of three samplings
# [2] = after extended culture 4 weeks, EGF present, single samplings
# [3] = after extended culture involving EGF, with respect to control cell population
# [4] = s6d11 (before extended culture); 3 μM cisplatin or 1 μM docetaxel for 7 days from day 4 of step 6)
compound,measurement,setting,value
"CC(=O)O[C@@]12CO[C@@H]1C[C@H](O)[C@@]1(C)C(=O)[C@H](O)C3=C(C)[C@@H](OC(=O)[C@H](O)[C@@H](NC(=O)OC(C)(C)C)c4ccccc4)C[C@@](O)([C@@H](OC(=O)c4ccccc4)[C@H]21)C3(C)C [Docetaxel, (−)-(1S,2S,3R,4S,5R,7S,8S,10R,13S)-4-Acetoxy-2-benzoyloxy-5,20-epoxy-1,7,10-trihydroxy-9-oxotax-11-en-13-yl (2R,3S)-3-tert-butoxycarbonylamido-2-hydroxy-3-phenylpropionate]",population exhibiting marked increase by extended culture (table footnote),"1 μM docetaxel, extended culture with EGF",No population exhibited marked increase by extended culture
same,"The number of cells CHGA+, average",[1],22 ×10^4 cells/mL
same,"The number of cells PDX+/CHGA−, average",[1],1.7 ×10^4 cells/mL
same,"The number of cells PDX−/CHGA−, average",[1],2.8 ×10^4 cells/mL
same,"Total number of cells, average",[1],27 ×10^4 cells/mL
same,The number of cells CHGA+,[2],21 ×10^4 cells/mL and 22 ×10^4 cells/mL and 24 ×10^4 cells/mL
same,The number of cells PDX+/CHGA−,[2],2.0 ×10^4 cells/mL and 1.5 ×10^4 cells/mL
same,The number of cells PDX−/CHGA−,[2],3.1 ×10^4 cells/mL and 2.7 ×10^4 cells/mL
same,Total number of cells,[2],26 ×10^4 cells/mL and 28 ×10^4 cells/mL
same,proportion of PDX1-negative and CHGA-negative (PDX1−/CHGA−) cells,[3],drastically decreased
same,proportion of PDX1-positive and CHGA-negative (PDX1+/CHGA−) cells,[3],drastically decreased
same,total number of cells after extended culture (in words),extended culture involving EGF,decreased
same,The number of cells CHGA+,[4],73 ×10^4 cells/mL
same,The number of cells PDX+/CHGA−,[4],1.3 ×10^4 cells/mL
same,The number of cells PDX−/CHGA−,[4],0.1 ×10^4 cells/mL
same,Total number of cells,[4],74 ×10^4 cells/mL
same,number of CHGA-positive endocrine cells after extended culture (in words),with respect to control cell population,not changed
